Experimental data: patent US20090291942A1, “IMIDAZO PYRIDINE DERIVATIVES” (priority 2008, published 2009)
Where a name gives a salt, the structure may show the parent alone.

Columns and labels:
[1] = system: VEGF-induced angiogenesis; experiment: GPR4 activity in VEGF-induced angiogenesis (angiogenesis growth factor implant model); format: in vivo; settings: mice, 10 mg/kg (qd) po, chamber tissue weighed on 4th day after implantation
Procedure: The functional activity of GPR4 was determined in the angiogenesis growth factor implant model. Porous tissue chambers made of perfluoro-alkoxy-Teflon were filled with 0.8% agar and 20 U/ml heparin supplemented with or without 8 μg/ml recombinant human VEGF. The solutions were maintained at 39° C. prior to the filling procedure. Mice were anesthetized using 3% isoflurane inhalation. For subcutaneous implantation, a small skin incision was made at the base of the tail to allow the insertion of an implant trocar. The chamber was implanted under aseptic conditions through the small incision onto the back of the animal. The skin incision was closed by wound clips. On the 4th day after implantation, animals were sacrificed using CO2. Chambers were excised and the vascularized fibrous tissue formed around each implant carefully removed and weighed. Body weight was used to monitor the general condition of the mice. The compounds were applied po at the day of the chamber implantation.

[2] = system: mouse antigen-induced arthritis; experiment: Mouse antigen-induced arthritis model; format: in vivo; settings: female OFA-1 mice, 50 mg/kg (bid) po from day 0 for 7 days, R/L knee swelling ratio AUC vs control
Procedure: c) GPR4 Activity in Mouse Antigen-Induced Arthritis Model
Female OFA-1 mice were sensitized i.d. on the back at two sites to methylated bovine serum albumin (mBSA) homogenize 1:1 with complete Freund's adjuvant on days—21 and —14 (0.1 ml containing 1 mg/ml mBSA). On day 0, the right knee receives 10 μl of 10 mg/ml mBSA in 5% glucose solution (antigen-injected knee), while the left knee receives 10 μl of 5% glucose solution alone (vehicle-injected knee). The diameters of the left and right knees were then measured using callipers immediately after the intra-articular injections and again on days 2, 4, 7, 9, 11 and 14. Vehicle and compounds were applied po starting at day 0 for 7 days. Right knee swelling was evaluated relative to left knee swelling, and the R/L knee swelling ratio plotted against time to give area under the curve (AUC) graphs for control and treatment groups. The percentage inhibition of the individual treatment group AUCs were calculated vs the control group AUC (0% inhibition) using an excel spreadsheet. On day 7, the mice were killed by CO2 inhalation and the right and left knees removed and processed for histological analysis.

human GPR4 = biological target: T1, human GPR4 (Homo sapiens, UniProt P46093); experiment: Cell-based assay for human GPR4 activity (pH-induced cAMP formation, HTRF); settings: HeLa cells stably expressing human GPR4, pH-induced cAMP formation
T1 construct: expressed in transfected cells
T1 sequence (P46093 whole entry): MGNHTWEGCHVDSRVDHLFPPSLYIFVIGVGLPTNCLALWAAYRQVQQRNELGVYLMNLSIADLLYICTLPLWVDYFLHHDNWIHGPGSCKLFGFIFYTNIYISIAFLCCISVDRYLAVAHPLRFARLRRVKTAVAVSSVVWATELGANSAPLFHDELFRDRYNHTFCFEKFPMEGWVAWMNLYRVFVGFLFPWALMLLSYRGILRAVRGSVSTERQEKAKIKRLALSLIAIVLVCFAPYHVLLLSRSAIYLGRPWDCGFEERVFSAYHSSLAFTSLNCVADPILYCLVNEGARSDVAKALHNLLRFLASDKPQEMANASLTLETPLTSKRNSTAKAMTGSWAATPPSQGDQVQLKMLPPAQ
Summary of the method: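 HeLa cells stably expressing human GPR4, pre-incubated 15 min at room temperature with compound in pH 8 buffer containing 2 mM IBMX. Buffer B added to set the final stimulation pH, then a further 15 min at room temperature; cAMP read by HTRF.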

Row | SMILES | Δ tissue weight [1] [%] | Δ swelling ratio [2] [%] | IC50 (human GPR4) [nM]
1 | CCc1nc2c(C)cc(C)nc2n1Cc1ccc(/C=C/CN2CCC(N3CCCCC3)CC2)cc1 [Example 33, 1′-{(E)-3-[4-(2-Ethyl-5,7-dimethyl-imidazo[4,5-b]pyridin-3-ylmethyl)-phenyl]-allyl}-[1,4′]bipiperidinyl dihydrochloride] | 45 | 59 | 71
2 | CCc1nc2c(C)cc(C)nc2n1Cc1ccc(CCCCN2CCN(C(C)(C)C)CC2)cc1 [Example 110, 3-{4-[4-(4-tert-Butyl-piperazin-1-yl)-butyl]-benzyl}-2-ethyl-5,7-dimethyl-3H-imidazo[4,5-b]pyridine dihydrochloride] |  |  | 98
3 | CCc1nc2c(C)cc(C)nc2n1Cc1ccc(CCCCN2CCN(C(C)C)CC2)cc1 [Example 111, 2-Ethyl-3-{4-[4-(4-isopropyl-piperazin-1-yl)-butyl]-benzyl}-5,7-dimethyl-3H-imidazo[4,5-b]pyridine dihydrochloride] |  |  | 412
4 | CCc1nc2c(C)cc(C)nc2n1Cc1ccc(CCCCN2CCC(N3CCCCC3)CC2)cc1 [Example 112, 1′-{4-[4-(2-Ethyl-5,7-dimethyl-imidazo[4,5-b]pyridin-3-ylmethyl)-phenyl]-butyl}-[1,4′]bipiperidine] |  |  | 59
